How the values were obtained:
Format in all cases: in vivo
[1] = system: redroot pigweed (Amaranthus retroflexus, AMARE); assay: Pre-emerge test, greenhouse herbicide activity screening; settings: pre-emerge, phytotoxicity rating 0-100 at 14 days after application
Procedure, shortened: (§1)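 Plants grown in 10 cm pots of sandy loam mix received acetone-dissolved compounds through a moving flat-fan nozzle. Doses ranged from 15 to 1000 g ai/ha. Pre-emerge pots were seeded one day earlier, post-emerge pots 8–21 days earlier. Fourteen days on, each pot was graded 0–100 for damage.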

[2] = system: barnyardgrass (Echinochloa crus-galli, ECHCG); assay: as above; settings: pre-emerge, phytotoxicity rating 0-100 at 14 days after application
Procedure, shortened: (§2)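 Rating: 0–100 visual injury, 14 DAA. Application: acetone, 187 l/ha, 15–1000 g ai/ha, flat-fan track sprayer with nozzle 40–45 cm above soil or canopy. Post-emerge runs used 0.25% v/v surfactant on 2–3 leaf plants.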

[3] = system: green foxtail (Setaria viridis, SETVI); assay: as above; settings: pre-emerge, phytotoxicity rating 0-100 at 14 days after application
Procedure, shortened: as §2

[4] = system: ivyleaf morningglory (Ipomoea hederacea, IPOHE); assay: as above; settings: pre-emerge, phytotoxicity rating 0-100 at 14 days after application
Procedure, shortened: as §2

[5] = system: johnsongrass (Sorghum halepense, SORHA); assay: as above; settings: pre-emerge, phytotoxicity rating 0-100 at 14 days after application
Procedure, shortened: as §2

[6] = system: lambsquarters (Chenopodium album, CHEAL); assay: as above; settings: pre-emerge, phytotoxicity rating 0-100 at 14 days after application
Procedure, shortened: as §2

[7] = system: large crabgrass (Digitaria sanguinalis, DIGSA); assay: as above; settings: pre-emerge, phytotoxicity rating 0-100 at 14 days after application
Procedure, shortened: as §2

[8] = system: sicklepod (Cassia obtusifolia, CASOB); assay: as above; settings: pre-emerge, phytotoxicity rating 0-100 at 14 days after application
Procedure, shortened: as §2

[9] = system: velvetleaf (Abutilon theophrasti, ABUTH); assay: as above; settings: pre-emerge, phytotoxicity rating 0-100 at 14 days after application
Procedure, shortened: as §2

[10] = system: field corn (Zea mays L., var. Dekalb 535, CORN); assay: Pre-emerge test, crop safety; settings: crop damage, pre-emerge, phytotoxicity rating 0-100 at 14 days after application
Procedure, shortened: (§3)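 Compounds in acetone were track-sprayed at 15-1000 g ai/ha (187 l/ha) on sandy loam pots: pre-emerge one day after seeding, post-emerge at 2-3 leaf stage with 0.25% v/v non-ionic surfactant. Phytotoxicity was rated 14 days later on a 0 (no damage) to 100 (complete death) scale.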

[11] = system: upland rice (Oryza sp., var. Tebonnet, RICE); assay: Pre-emerge test, crop safety; settings: crop damage, pre-emerge, phytotoxicity rating 0-100 at 14 days after application
Procedure, shortened: as §3

[12] = system: barnyardgrass (Echinochloa crus-galli, ECHCG); assay: Post-emerge test, greenhouse herbicide activity screening; settings: post-emerge, phytotoxicity rating 0-100 at 14 days after application
Procedure, shortened: (§4)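 Each test used a mechanized track sprayer delivering 187 l/ha of acetone solution at 15–1000 g ai/ha. Post-emerge foliage at 2–3 leaves was treated with added 0.25% v/v non-ionic surfactant and bottom-watered only. Injury was assessed on day 14, where 100 means total kill.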

[13] = system: green foxtail (Setaria viridis, SETVI); assay: as above; settings: post-emerge, phytotoxicity rating 0-100 at 14 days after application
Procedure, shortened: as §4

[14] = system: ivyleaf morningglory (Ipomoea hederacea, IPOHE); assay: as above; settings: post-emerge, phytotoxicity rating 0-100 at 14 days after application
Procedure, shortened: as §4

[15] = system: johnsongrass (Sorghum halepense, SORHA); assay: as above; settings: post-emerge, phytotoxicity rating 0-100 at 14 days after application
Procedure, shortened: as §4

[16] = system: lambsquarters (Chenopodium album, CHEAL); assay: as above; settings: post-emerge, phytotoxicity rating 0-100 at 14 days after application
Procedure, shortened: as §4

[17] = system: large crabgrass (Digitaria sanguinalis, DIGSA); assay: as above; settings: post-emerge, phytotoxicity rating 0-100 at 14 days after application
Procedure, shortened: as §4

[18] = system: redroot pigweed (Amaranthus retroflexus, AMARE); assay: as above; settings: post-emerge, phytotoxicity rating 0-100 at 14 days after application
Procedure, shortened: as §4

[19] = system: sicklepod (Cassia obtusifolia, CASOB); assay: as above; settings: post-emerge, phytotoxicity rating 0-100 at 14 days after application
Procedure, shortened: as §4

[20] = system: velvetleaf (Abutilon theophrasti, ABUTH); assay: as above; settings: post-emerge, phytotoxicity rating 0-100 at 14 days after application
Procedure, shortened: as §4

[21] = system: field corn (Zea mays L., var. Dekalb 535, CORN); assay: Post-emerge test, crop safety; settings: post-emerge, crop damage rating 0-100 at 14 days after application
Procedure, shortened: as §1

[22] = system: upland rice (Oryza sp., var. Tebonnet, RICE); assay: Post-emerge test, crop safety; settings: post-emerge, crop damage rating 0-100 at 14 days after application
Procedure, shortened: as §1

O=C(Nc1cc(Cl)ccc1N1C(=O)C2=C(CCCC2)C1=O)c1ccc2ccccc2c1 [8-36]
80: Pre-emerge Herbicidal Activity ABUTH ([9]; rate 63 g ai/ha)
90: Post-emerge Herbicidal Activity AMARE ([18]; 250 g ai/ha)
20: Pre-emerge Herbicidal Activity IPOHE ([4]; rate 250 g ai/ha) | Pre-emerge Herbicidal Activity RICE ([11]; rate 63 g ai/ha) | Post-emerge Herbicidal Activity ECHCG ([12]; 250 g ai/ha) | Post-emerge Herbicidal Activity RICE ([22]; 250 g ai/ha)
10: Pre-emerge Herbicidal Activity IPOHE ([4]; rate 63 g ai/ha) | Pre-emerge Herbicidal Activity CASOB ([8]; rate 63 g ai/ha) | Post-emerge Herbicidal Activity SETVI ([13]; 63 g ai/ha) | Post-emerge Herbicidal Activity SETVI ([13]; 250 g ai/ha) | Post-emerge Herbicidal Activity SORHA ([15]; 250 g ai/ha) | Post-emerge Herbicidal Activity DIGSA ([17]; 63 g ai/ha) | Post-emerge Herbicidal Activity CORN ([21]; 63 g ai/ha) | Post-emerge Herbicidal Activity RICE ([22]; 63 g ai/ha)
40: Pre-emerge Herbicidal Activity DIGSA ([7]; rate 250 g ai/ha) | Pre-emerge Herbicidal Activity RICE ([11]; rate 250 g ai/ha)
5: Post-emerge Herbicidal Activity DIGSA ([17]; 250 g ai/ha)
0: Pre-emerge Herbicidal Activity ECHCG ([2]; rate 63 g ai/ha) | Pre-emerge Herbicidal Activity ECHCG ([2]; rate 250 g ai/ha) | Pre-emerge Herbicidal Activity SETVI ([3]; rate 63 g ai/ha) | Pre-emerge Herbicidal Activity SORHA ([5]; rate 63 g ai/ha) | Pre-emerge Herbicidal Activity SORHA ([5]; rate 250 g ai/ha) | Pre-emerge Herbicidal Activity DIGSA ([7]; rate 63 g ai/ha) | Pre-emerge Herbicidal Activity CORN ([10]; rate 63 g ai/ha) | Pre-emerge Herbicidal Activity CORN ([10]; rate 250 g ai/ha) | Post-emerge Herbicidal Activity ECHCG ([12]; 63 g ai/ha) | Post-emerge Herbicidal Activity SORHA ([15]; 63 g ai/ha)
30: Pre-emerge Herbicidal Activity SETVI ([3]; rate 250 g ai/ha) | Pre-emerge Herbicidal Activity CASOB ([8]; rate 250 g ai/ha) | Pre-emerge Herbicidal Activity ABUTH ([9]; rate 250 g ai/ha)
95: Post-emerge Herbicidal Activity CHEAL ([16]; 63 g ai/ha) | Post-emerge Herbicidal Activity AMARE ([18]; 63 g ai/ha) | Post-emerge Herbicidal Activity CASOB ([19]; 250 g ai/ha)
85: Post-emerge Herbicidal Activity IPOHE ([14]; 250 g ai/ha)
15: Post-emerge Herbicidal Activity CORN ([21]; 250 g ai/ha)
70: Post-emerge Herbicidal Activity CASOB ([19]; 63 g ai/ha)
100: Pre-emerge Herbicidal Activity AMARE ([1]; rate 63 g ai/ha) | Pre-emerge Herbicidal Activity AMARE ([1]; rate 250 g ai/ha) | Pre-emerge Herbicidal Activity CHEAL ([6]; rate 63 g ai/ha) | Pre-emerge Herbicidal Activity CHEAL ([6]; rate 250 g ai/ha) | Post-emerge Herbicidal Activity IPOHE ([14]; 63 g ai/ha) | Post-emerge Herbicidal Activity CHEAL ([16]; 250 g ai/ha) | Post-emerge Herbicidal Activity ABUTH ([20]; 63 g ai/ha) | Post-emerge Herbicidal Activity ABUTH ([20]; 250 g ai/ha)

Reference: patent US6355799B1, “Substituted benzene compounds, process for their preparation, and herbicidal and defoliant compositions containing them” (ISK Americas Incorporated, priority 1997, dated 2002)
